Results from patent US12617757B2, “Compounds and modules for inhibition of pre-miR-21 and their use in treatment of certain cancers” (University of Florida Research Foundation, Incorporated, priority 2019, dated 2026).

Experiments:
PTEN = PTEN 3′ UTR luciferase reporter assay in MDA-MB-231 cells; type: cell-based, human
Protocol: PTEN Luciferase Assay. The MDA-MB-231 cells were grown in 48-well plates to ˜60% confluency and then transiently co-transfected with a Firefly luciferase plasmid encoding the 3′ untranslated region (UTR) of PTEN^25 and a control Renilla luciferase plasmid using Lipofectamine 2000 per the manufacturer's protocol. At 5 h post-transfection, compounds diluted in growth medium were added to cells and then incubated for 48 h. Luciferase assays were completed using a previously described protocol^23,26. Luminescence signal was measured on a Biotek Flx800 plate reader.

pre-miR-21 BP = experiment: MST binding to pre-miR-21 BP (base paired control); conditions: addition of 100 μM of compound
Protocol: Microscale Thermophoresis (MST) Binding Measurements. MST fluorescent measurements were performed on a Monolith NT.115 system (NanoTemper Technologies) using the fluorescence of a miR-21 hairpin (A+U Bulge): (5′ Cy5-[…]-3′) (SEQ ID NO: 1) or a miR-21 base paired control (5′ Cy5-[…]-3′) (SEQ ID NO: 2) which were purchased from IDT with RNase-free HPLC purification and used without further purification. The RNA (5 nM) was diluted in 1×MST Buffer (8 mM Na2HPO4, 190 mM NaCl, 1 mM EDTA, and 0.05% (v/v) Tween-20) and folded by heating at 60° C. for 5 min, and slowly cooling to room temperature. Compounds 1 and 2 were diluted in 1×MST Buffer, followed by 1:3 dilutions in 1×MST Buffer containing 5 nM RNA. […] Fluorescence measurements (Ex: 605-645 nm, Em: 680-685 nm) were performed at 10% LED and 80% MST power, with a Laser-On time of 30 s and Laser-Off time of 5 s. The data were analyzed by thermophoresis analysis and fitted by the quadratic binding equation in MST analysis software (NanoTemper Technologies). Dissociation constants were then determined by curve fitting using a single-site model. Normalized MST signal was calculated by normalizing the fluorescent signals using the MST data of 1 binding to pre-miR-21 WT with the lowest signal as 0 and the highest fluorescent signal as 1.

MDA-MB-231-Luc cells = experiment: In vivo MDA-MB-231 lung metastasis model in NOD/SCID mice; design: species or system mouse; conditions: 10 mg/kg; for lung nodules / metastasis to lung: 6 weeks
Protocol: FIGS. 46A-46C. In vivo mouse weights and Scrambled FISH staining of lung nodules with 5 treatment. […] Treatment of mice with 10 mg/kg of 5 started after 6 days of tumor cell injection. […] Dashed line indicates normalized signal intensity in vehicle samples.
Intravenous delivery of MDA-MB-231 cells to mice is a model of breast cancer metastasis and metastatic behavior can be affected by inhibition of miR-21, S. Yang, J. J. Zhang, X.-Y. Huang, Mouse models for tumor metastasis. Methods Mol. Biol. 928, 221-228 (2012).

RNase L = target: T1, RNase L (Homo sapiens, UniProt Q05823); experiment: Co-immunoprecipitation of RNase L from treated cells; type: cell-based; design: endogenous in cells; host or cells: MDA-MB-231
T1 sequence (Q05823 1-741): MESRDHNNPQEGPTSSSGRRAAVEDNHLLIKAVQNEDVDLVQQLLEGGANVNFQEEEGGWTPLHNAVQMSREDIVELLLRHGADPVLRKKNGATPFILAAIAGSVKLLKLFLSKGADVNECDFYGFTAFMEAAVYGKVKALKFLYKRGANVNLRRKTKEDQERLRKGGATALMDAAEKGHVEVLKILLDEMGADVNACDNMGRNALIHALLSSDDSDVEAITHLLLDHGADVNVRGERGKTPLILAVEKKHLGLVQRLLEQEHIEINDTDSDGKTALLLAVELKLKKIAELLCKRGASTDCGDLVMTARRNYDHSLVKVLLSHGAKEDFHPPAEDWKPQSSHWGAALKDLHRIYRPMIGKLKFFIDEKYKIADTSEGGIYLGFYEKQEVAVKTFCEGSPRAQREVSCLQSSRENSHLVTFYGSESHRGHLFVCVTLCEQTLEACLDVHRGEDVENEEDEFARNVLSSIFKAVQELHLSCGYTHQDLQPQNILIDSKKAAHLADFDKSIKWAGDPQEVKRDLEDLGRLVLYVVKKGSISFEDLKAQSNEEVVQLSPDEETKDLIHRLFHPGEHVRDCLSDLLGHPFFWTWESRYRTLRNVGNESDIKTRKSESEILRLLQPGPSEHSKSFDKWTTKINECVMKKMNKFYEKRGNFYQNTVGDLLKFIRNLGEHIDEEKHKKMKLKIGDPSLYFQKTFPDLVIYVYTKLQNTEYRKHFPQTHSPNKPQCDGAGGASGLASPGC

Compound: CCCN(CC(=O)N(CCC)CC(=O)N(CCC)CC(=O)N(CC(N)=O)Cc1cn(CCCNC(=O)CCCOc2ccc(-c3nc4cc(-c5ccc(N6CCN(C)CC6)cc5)ccc4[nH]3)cc2)nn1)C(=O)CNCc1cn(CCCNC(=O)CCCOc2ccc(-c3nc4cc(-c5ccc(N6CCN(C)CC6)cc5)ccc4[nH]3)cc2)nn1 [Compound 2]
- increase of PTEN luciferase signal relative to mock or scramble controls (PTEN): ~1.5 fold
- increase of PTEN levels (PTEN; 10 μM): ~50%
- saturation of the binding isotherm (pre-miR-21 BP): No saturation of the binding isotherm was observed

Compound: CCCN(CC(=O)N(CCC)CC(=O)N(CCC)CC(=O)N(CC(=O)NCCOCCOCCOCCOc1ccc(C=C2SC(Nc3ccccc3)=C(C(=O)OCC)C2=O)cc1O)Cc1cn(CCCNC(=O)CCCOc2ccc(-c3nc4cc(-c5ccc(N6CCN(C)CC6)cc5)ccc4[nH]3)cc2)nn1)C(=O)CN(Cc1cn(CCCNC(=O)CCCOc2ccc(-c3nc4cc(-c5ccc(N6CCN(C)CC6)cc5)ccc4[nH]3)cc2)nn1)C(C)=O [Compound 5]
- weight changes compared to vehicle-treated mice (MDA-MB-231-Luc cells; over 42 days, NOD/SCID mice): did not cause significant weight changes
- PDCD4 in lung nodule tissue sections (MDA-MB-231-Luc cells; q.o.d.): increased PDCD4 levels
- hematoxylin and eosin (HE) staining of lung tissue (MDA-MB-231-Luc cells; q.o.d.): decreased hematoxylin and eosin (HE) staining
- mature miR-21 in lung nodule tissue (FISH) (MDA-MB-231-Luc cells; q.o.d.): decreased mature miR-21
- pre-miR-21 in lung nodule tissue (FISH) (MDA-MB-231-Luc cells; q.o.d.): decreased
- lung nodules / metastasis to lung (MDA-MB-231-Luc cells; q.o.d.): decreased lung nodules
- lung nodules / metastasis to lung (MDA-MB-231-Luc cells; q.o.d., listed as Formula 5): inhibited breast cancer metastasis to lung
- PDCD4 in lung nodule tissue sections (MDA-MB-231-Luc cells; q.o.d., listed as Formula 5): increase in PDCD4 protein expression
- mature miR-21 in lung nodule tissue (FISH) (MDA-MB-231-Luc cells; q.o.d., listed as Formula 5): diminished
- pre-miR-21 in lung nodule tissue (FISH) (MDA-MB-231-Luc cells; q.o.d., listed as Formula 5): diminished
- tolerability (MDA-MB-231-Luc cells; intraperitoneal injection, q.o.d.): well tolerated
- pre-miR-21 in the enriched fraction of RNase L co-immunoprecipitation (RNase L): increased levels of pre-miR-21 in the enriched fraction
- enrichment of pre-miR-210 in RNase L co-immunoprecipitation (RNase L; 200 nM): no enrichment of pre-miR-210
- increase in pre-miR-21 in RNase L co-immunoprecipitation (RNase L; 200 nM): ~3 fold
